Assay results reported in paper PMC10058949, “Effect of N-Terminal Peptide Modifications on In Vitro and In Vivo Properties of ^177Lu-Labeled Peptide Analogs Targeting CCK2R” (Pharmaceutics, 2023).

Legend:
[1] = Octanol/PBS distribution coefficient (logD7.4); format: physicochemical; details: pH 7.4
Procedure: (§1) The stability studies with the ^177Lu-labeled peptide analogs were carried out at a concentration of 0.5 nmol peptide/mL in fresh human serum (n = 2) for up to 24 h. A mixture of 0.05 nmol/mL of the radiolabeled peptides in PBS and octanol (1/1, v/v) was used to evaluate the octanol/PBS distribution coefficient (logD7.4; n = 8). To determine the protein binding in human serum by Sephadex G-50 size-exclusion chromatography (GE Healthcare Illustra, Little Chalfont, UK), a 25 µL serum sample was used for different time points after incubation. All steps were performed according to previously published protocols.

human serum proteins = assay: Protein binding in human serum by Sephadex G-50 size-exclusion chromatography; format: in vitro ADME
Procedure: as §1

[2] = test system: A431-CCK2R/A431-mock xenografted BALB/c nude mice; assay: Biodistribution 4 h p.i. in A431-CCK2R/A431-mock xenografted BALB/c nude mice; format: in vivo; details: mouse, in vivo
Procedure: (§2) Then, after 7–11 days, when visible tumor xenografts were formed, groups of 5 mice were injected intravenously via a lateral tail vein with ~0.5 MBq of radiolabeled peptide, corresponding to 20 pmol of peptide, in a total volume of ~150 µL in PBS/0.5% BSA. Using an additional mouse per group, a blocking study was performed by co-injecting a 1000-fold molar excess of the respective peptide analog (20 nmol) together with the radiolabeled peptide. For quantification, a 1:1, 1:10 and 1:50 standard was prepared using aliquots of the injection solution mixed with PBS/0.5% BSA. Mice were euthanized by cervical dislocation 4 h after injection. Subsequently, a blood sample was collected, and different tissues were dissected. All samples, as well as the rest of the body were weighed, and the activity measured in the γ-counter together with the standard. Results were expressed as percentage of injected activity per gram of tissue (%IA/g).

[3] = Biodistribution blocking experiment with 1000-fold excess of non-radiolabeled peptide; format: in vivo, mice; details: female, BALB/c nude, mouse, in vivo, iv, total radioactivity, blocking
Procedure: as §2

in vivo = assay: in vivo; set-up: species or system mice; details: female, BALB/c nude, mouse, iv, 20 pmol, total radioactivity
Description: (§3) Based on these preliminary studies, [^177Lu]Lu-2 was selected for further biodistribution studies evaluating the tumor uptake and tissue distribution for up to 7 days after injection. This study was approved by the Nijmegen Medical Center animal ethics committee (RUDEC) and the Dutch animal ethics committee (CCD) of the Radboud University (2020–0007-020). Female BALB/c nude mice were inoculated with A431-CCK2R cells at an age of 8–10 weeks (n = 20). When tumor xenografts were formed, mice were injected intravenously via a lateral tail vein with ~1 MBq of [^177Lu]Lu-2, corresponding to 20 pmol of peptide, in a total volume of 200 µL in PBS/0.5% BSA. For quantification, a 1% standard was used. At different time points of 1 h, 24 h, 3 days, and 7 days after injecton, animals were euthanized by CO2/O2-asphyxiation and a blood sample was immediately drawn, and tissues of interest (spleen, pancreas, stomach, intestine, kidneys, liver, heart, lung, muscle, femur, A431-CCK2R tumor, and A431-mock tumor) were dissected. All collected samples were weighed and measured in the γ-counter together with the standard. Results were expressed as percentage of injected activity per gram of tissue (%IA/g), and tumor-to-organ activity ratios were calculated for selected tissues. For dose-limiting organs, kidneys and stomach, dosimetry estimates were calculated using Olinda-EXM (version 2.2, Vanderbilt University) and standard weights for humans (male and female). For this purpose, the % IA/g determined in mice was extrapolated to humans using the following equation: % IA per organ in humans=[%IA/gin mice×mass of mice (kg)]×(mass of human organ (g)/total body mass of human (kg))

[4] = test system: A431-CCK2R xenografted BALB/c nude mice; assay: in vivo; details: mouse
Description: as §3

[5] = set-up: species or system human
Description: as §3, with “At different time points of 1 h, 24 h, 3 days, and 7 days after injecton, animals were euthanized by CO2/O2-asphyxiation and a blood sample was immediately drawn, and tissues of interest (spleen, pancreas, stomach, intestine, kidneys, liver, heart, lung, muscle, femur, A431-CCK2R tumor, and A431-mock tumor) were dissected.” left out, “(kg)) […]” for “(kg))”

[6] = uptake in A431-CCK2R xenografts
[7] = female, BALB/c nude, iv, 20 pmol, 72 h

In the case of `CCCC[C@@H](C(=O)N[C@@H](CC(=O)O)C(=O)N[C@@H](Cc1cccc2ccccc12)C(N)=O)N(C)C(=O)[C@H](Cc1c[nH]c2ccccc12)NC(=O)CCNC(=O)CC(O)CNC(=O)CC(O)CNC(=O)CN1CCN(CC(=O)O)CCN(CC(=O)O)CCN(CC(=O)O)CC1` (some centres unmarked) [[^177Lu]Lu-2, metal not drawn], the logD [1] is reported as -2.18 ± 0.38, the “change in binding to human serum proteins compared to [177Lu]Lu-DOTA-MGS5” value (human serum proteins) is reported as 2-fold decrease and the “decrease in protein binding compared to [177Lu]Lu-DOTA-MGS5” value (human serum proteins; human, serum) is reported as ~ 50%. For the same compound, the “improvement in tumor-to-kidney ratio versus [177Lu]Lu-DOTA-MGS5” value [2] was “more than 2 fold”, the tissue uptake at 4 h ([3]; uptake in A431-CCK2R xenograft) was 0.39 %ID/g and the tissue uptake at 4 h ([3]; uptake in A431-mock xenograft) was 0.16 %ID/g. For the same compound, the tissue uptake at 4 h ([3]; uptake in blood) was 0.02 %ID/g, the tissue uptake at 4 h ([3]; uptake in femur) was 0.09 %ID/g and the tissue uptake at 4 h ([3]; uptake in heart) was 0.04 %ID/g. It also gave a tissue uptake at 4 h ([3]; uptake in lung) of 0.2 %ID/g, a tissue uptake at 4 h ([3]; uptake in pancreas) of 0.05 %ID/g and a tissue uptake at 4 h ([3]; uptake in stomach) of 0.09 %ID/g. For the same compound, the tissue to tissue ratio at 1 h (in vivo; Tumor-to-blood ratio) was 38.9, the tissue to tissue ratio at 24 h (in vivo; Tumor-to-blood ratio) was 3240 and the tissue to tissue ratio at 72 h (in vivo; Tumor-to-blood ratio) was 4860. For the same compound, the tissue to tissue ratio at 168 h (in vivo; Tumor-to-blood ratio) was 241, the tissue to tissue ratio at 1 h (in vivo; Tumor-to-kidney ratio) was 19.8 and the tissue to tissue ratio at 24 h (in vivo; Tumor-to-kidney ratio) was 25.5. It also gave a tissue to tissue ratio at 72 h (in vivo; Tumor-to-kidney ratio) of roughly 17, a tissue to tissue ratio at 168 h (in vivo; Tumor-to-kidney ratio) of 4 and a tissue to tissue ratio at 1 h (in vivo; Tumor-to-stomach ratio) of 10.4. It also gave a tissue to tissue ratio at 24 h (in vivo; Tumor-to-stomach ratio) of 9.2, a tissue to tissue ratio at 72 h (in vivo; Tumor-to-stomach ratio) of roughly 6 and a tissue to tissue ratio at 168 h (in vivo; Tumor-to-stomach ratio) of 1.4. For the same compound, the tissue uptake at 1 h (in vivo; [6]) was 56.3 ± 9.14 %ID/g, the tissue uptake at 24 h (in vivo; [6]) was 33.6 ± 2.95 %ID/g and the tissue uptake at 72 h (in vivo; [6]) was 12.5 ± 0.96 %ID/g. The tissue uptake at 168 h (in vivo; [6]) was 1.23 ± 0.53 %ID/g, the tissue uptake at 1 h (in vivo; uptake in blood) was 1.45 ± 0.3 %ID/g and the tissue uptake at 168 h (in vivo; uptake in blood) was 0.01 %ID/g. The tissue uptake at 1 h (in vivo; uptake in femur) was 0.23 ± 0.05 %ID/g, the tissue uptake at 24 h (in vivo; uptake in femur) was 0.05 ± 0.01 %ID/g and the tissue uptake at 72 h (in vivo; uptake in femur) was 0.03 ± 0.01 %ID/g. It also gave a tissue uptake at 168 h (in vivo; uptake in femur) of 0.04 ± 0.02 %ID/g, a tissue uptake at 1 h (in vivo; uptake in heart) of 0.62 ± 0.12 %ID/g and a tissue uptake at 24 h (in vivo; uptake in heart) of 0.05 ± 0.01 %ID/g. It also gave a tissue uptake at 72 h (in vivo; uptake in heart) of 0.02 %ID/g, a tissue uptake at 168 h (in vivo; uptake in heart) of 0.02 %ID/g and a tissue uptake at 1 h (in vivo; uptake in intestine) of 1 ± 0.34 %ID/g. The tissue uptake at 24 h (in vivo; uptake in intestine) was 0.16 ± 0.02 %ID/g, the tissue uptake at 72 h (in vivo; uptake in intestine) was 0.08 %ID/g and the tissue uptake at 168 h (in vivo; uptake in intestine) was 0.03 %ID/g. For the same compound, the tissue uptake at 1 h (in vivo; uptake in kidneys) was 2.84 ± 0.42 %ID/g, the tissue uptake at 24 h (in vivo; uptake in kidneys) was 1.32 ± 0.23 %ID/g and the tissue uptake at 72 h (in vivo; uptake in kidneys) was 0.72 ± 0.1 %ID/g. The tissue uptake at 1 h (in vivo; uptake in liver) was 0.95 ± 0.12 %ID/g, the tissue uptake at 24 h (in vivo; uptake in liver) was 0.38 ± 0.08 %ID/g and the tissue uptake at 72 h (in vivo; uptake in liver) was 0.18 ± 0.01 %ID/g. The tissue uptake at 168 h (in vivo; uptake in liver) was 0.06 ± 0.01 %ID/g, the tissue uptake at 1 h (in vivo; uptake in lung) was 4.33 ± 0.87 %ID/g and the tissue uptake at 24 h (in vivo; uptake in lung) was 0.09 ± 0.02 %ID/g. The tissue uptake at 72 h (in vivo; uptake in lung) was 0.06 ± 0.01 %ID/g, the tissue uptake at 168 h (in vivo; uptake in lung) was 0.02 ± 0.01 %ID/g and the tissue uptake at 1 h (in vivo; uptake in muscle) was 0.22 ± 0.05 %ID/g. It also gave a tissue uptake at 24 h (in vivo; uptake in muscle) of 0.03 %ID/g, a tissue uptake at 72 h (in vivo; uptake in muscle) of 0.01 %ID/g and a tissue uptake at 168 h (in vivo; uptake in muscle) of 0.01 ± 0.01 %ID/g. For the same compound, the tissue uptake at 1 h (in vivo; uptake in pancreas) was 0.85 ± 0.14 %ID/g, the tissue uptake at 24 h (in vivo; uptake in pancreas) was 0.41 ± 0.08 %ID/g and the tissue uptake at 72 h (in vivo; uptake in pancreas) was 0.28 ± 0.04 %ID/g. It also gave a tissue uptake at 168 h (in vivo; uptake in pancreas) of 0.16 ± 0.04 %ID/g, a tissue uptake at 1 h (in vivo; uptake in spleen) of 0.54 ± 0.08 %ID/g and a tissue uptake at 24 h (in vivo; uptake in spleen) of 0.19 ± 0.03 %ID/g. For the same compound, the tissue uptake at 72 h (in vivo; uptake in spleen) was 0.13 ± 0.02 %ID/g, the tissue uptake at 168 h (in vivo; uptake in spleen) was 0.09 ± 0.04 %ID/g and the tissue uptake at 1 h (in vivo; uptake in stomach) was 5.43 ± 1.05 %ID/g. It also gave a tissue uptake at 24 h (in vivo; uptake in stomach) of 3.66 ± 0.38 %ID/g, a tissue uptake at 72 h (in vivo; uptake in stomach) of 2.28 ± 0.33 %ID/g and a tissue uptake at 168 h (in vivo; uptake in stomach) of 0.88 ± 0.12 %ID/g. For the same compound, the “uptake in A431-CCK2R xenografts” value ([4]; female, BALB/c nude, iv, 20 pmol, 1 h) was ~ 56 % IA/g, the Tumor-to-kidney ratio [4, 7] was 17.3 and the Tumor-to-stomach ratio [4, 7] was 5.5. The “uptake in A431-CCK2R xenografts” value [4, 7] was ~ 13 % IA/g, the uptake in kidneys [4, 7] was “below 1 % IA/g” and the “decrease of kidney uptake after 24 h versus 1 h p.i.” value [4] was ~ 54%. The “drop of uptake in A431-CCK2R xenografts after 24 h versus 1 h p.i.” value [4] was ~ 40%, the “improvement in tumor uptake in comparison with [177Lu]Lu-PP-F11N” value [4] was 4 fold and the “reduction of stomach uptake at 24 h p.i. versus 1 h p.i.” value [4] was ~ 33%. For the same compound, the “cumulative absorbed radiation dose, kidneys” value [5] was less than 5 Gy and the “cumulative absorbed radiation dose, stomach” value [5] was less than 10 Gy.
